Literature values in patent publication US6339092B1, “Metalloprotease inhibitors” (Adir et Compagnie, priority 1999, dated 2002).

System: ovarian cancers
Settings: Becket el al., DDT 1996; cited from earlier work

SMILES: CNC(=O)[C@H](Cc1ccccc1)NC(=O)[C@H](CC(C)C)[C@H](CSc1cccs1)C(=O)NO [BB94]
- anti-tumour activity in clinical use: active against ovarian cancers
